The test system of experiment [1] is YUMC-C1 cell line. The following applies: YUMC-C1 xenograft mice; oral, 13 times for 41 days; doses of Table 3; vs control group. How it is done: (§1) 15 days after injection of each of the cell lines, when the tumor volume reached about 100 to 200 mm^3, mice having a tumor with the above volume were randomly grouped (n=10/group), and then each drug was administered to the mice 13 times for a total of 41 days under the conditions shown in Table 3 below. Then, the changes in tumor volume during this administration were measured, and the results of the measurement are shown in FIG. 3. In addition, the tumor was extracted and the net weight of the tumor was measured, and the results of the measurement are shown in FIG. 4. Here, nothing was administered to the control group.

For experiment [2], the system named is YUMC-C1 cell line. The following applies: 200 μM, drug alone.
Protocol: Each of the YUMC-C1, YUMC-H2 and YUMC-P1 cell lines of Example 1 was inoculated into 96-well plates at a density of 6×10^3 cells/well and then cultured overnight to a confluence of 90%. […] However, when hydroflumethiazide was used in combination with oxaliplatin or sorafenib, the treatment concentration of each of oxaliplatin and sorafenib was 30 μM. Thereafter, cell viability was measured using the MTT reagent. The absorbance was measured at 550 nm, and viable cells were counted using trypan blue staining.
Experiment [3] has as its system YUMC-H2 cell line. In words: MTT cell viability of anticancer drug-resistant cancer cell line. Format: cell-based, human. The following applies: 200 μM, drug alone.
Experiment [4] deals with YUMC-P1 cell line. The experiment is described as above. The settings on record: 200 μM, drug alone. The class given is cell-based, human.
Experiment [5] relates to YUMC-H2 cell line. The settings on record: YUMC-H2 xenograft mice; oral, 13 times for 41 days; doses of Table 3. How it is done:
as §1

The subject of experiment [6] is YUMC-P1 cell line. The settings on record: YUMC-P1 xenograft mice; oral, 13 times for 41 days; doses of Table 3. How it is done:
as §1

`O=C1[O][Pt]2([NH][C@@H]3CCCC[C@H]3[NH]2)[O]C1=O` [oxaliplatin]: in the experiment on YUMC-C1 cell line [1], the net tumor weight entry is reported as “did not significantly decrease” and the tumor volume result is “did not significantly decrease”. Besides, the cells survived result in the experiment on YUMC-C1 cell line [2] is reported as “more than 80%”.

Take `CNC(=O)c1cc(Oc2ccc(NC(=O)Nc3ccc(Cl)c(C(F)(F)F)c3)cc2)ccn1` [sorafenib]: the cells survived entry in the experiment on YUMC-H2 cell line [3] and in the experiment with YUMC-P1 cell line [4] was “more than 80%” throughout. The net tumor weight result in the experiment with YUMC-H2 cell line [5] and in the experiment with YUMC-P1 cell line [6] was “no significant changes” in each case. For the same compound, the tumor volume result in the experiment with YUMC-H2 cell line [5] and in the experiment on YUMC-P1 cell line [6] was “no significant changes” in each case.

The record behind these values is patent US20240016812A1, “COMPOSITION FOR PREVENTING, ALLEVIATING OR TREATING CANCER” (CKP Therapeutics, Inc., priority 2021, published 2024).
